Data reported in patent publication US20240425480A1, “NOVEL PYRIDINE DERIVATIVE COMPOUND AS RON INHIBITOR” (LG CHEM, LTD., priority 2021, published 2024).

Columns and labels:
cMET = cMET (Homo sapiens, UniProt P08581); assay: Inhibitory activity against MET (cMET), TR-FRET kinase assay; assay type: biochemical; details: TR-FRET enzyme assay
Procedure: In addition, in order to measure the enzyme activity inhibition for cMET, the evaluation was performed in the same manner as the enzyme activity inhibition measurement experiment for RON.
(§1) Specifically, the compound was prepared to a concentration of 1 mM in 100% DMSO and was diluted 10 times in a stepwise manner through 3-fold dilution. The compound (2 ul) diluted in a stepwise manner was added to a 96-well-plate containing 48 ul of a 1×kinase reaction buffer (50 mM HEPES (pH 7.4), 0.05% BSA, 0.005% Tween-20, 1 mM DTT, 0.5 mM MnCl2, 20 mM MgCl2).
The cMET protein was diluted to a concentration of 263 nM in a cMET storage buffer (50 mM Tris-HCl (pH 7.5), 150 mM NaCl, 0.05% Brij35, 1 mM DTT, 10% Glycerol), and then diluted again to a concentration of 2 nM in a 1×kinase reaction buffer. As a substrate cocktail, a MET-specific substrate mixed solution (5 uM TK peptide, 10 mM ATP) was prepared at a concentration 2 times the final reaction concentration.
(§2) Thereafter, a 384-well-plate was prepared, and 2.5 μl of each of the diluted compounds of Examples was added to a corresponding well of experimental group wells, and 2.5 μl of a 4% DMSO solution was dispensed into high control wells and low control wells.
(§3) Thereafter, 2.5 μL of 2 nM cMET was dispensed into each of the high control wells and the experimental group wells, and 2.5 μL of the 1× kinase reaction buffer was added to the low control wells, and all the wells were centrifuged at room temperature for 40 seconds at 1,000 RPM, and then incubated at room temperature for 20-30 minutes. Then, 5 μL of the substrate cocktail (2×) was dispensed into each well, and all the wells were centrifuged at room temperature for 40 seconds at 1,000 RPM, and then incubated at room temperature for 60 minutes. Thereafter, 5 μL of 90 mM EDTA was added to each well to terminate the reaction, and all the wells were then incubated again at room temperature for 5 minutes. Thereafter, 5 μL of a 4×phosphotyrosine antibody (Perkin Elmer) containing europium was added to each well, and all the wells were then incubated at room temperature for 60 minutes. After the incubation, the 384-well-plate was read with the Vison plate reader. In this case, the excitation wavelength was 340 nm, and the emission wavelength was 620 nm and 665 nm. The pe50 value of each compound of Examples was derived using the GraphPd Prism7 program.

RON = RON (Homo sapiens, UniProt Q04912); assay: Inhibitory activity against RON, TR-FRET kinase assay; assay type: biochemical; details: TR-FRET enzyme assay
Procedure: In order to measure the inhibitory activity of each of the compounds of Examples against RON, the IC50 of each of the compounds was measured using Time-resolved fluorescence energy transfer (TR-FRET).
as §1, with “a 1× kinase” for “a 1×kinase”, “7.4), 0.01%” for “7.4), 0.05% BSA, 0.005%”, “Tween-20, 5” for “Tween-20, 1”, “mM Na3VO4, 2 mM EGTA, 10” for “mM MnCl2, 20”
The RON protein was diluted to a concentration of 49.3 nM in a RON storage buffer (50 mM Tris-HCl (pH 7.5), 150 mM NaCl, 0.5 mM EDTA, 0.02% Triton X-100), and then diluted again to a concentration of 0.4 nM in a 1×kinase reaction buffer. As a substrate cocktail, a RON-specific substrate mixed solution (40 uM ULight-labeled Poly GT, 100 nM ATP) was prepared at a concentration 2 times the final reaction concentration.
as §2
as §3, with “of 0.4” for “of 2”, “nM RON” for “nM cMET”, “of 30” for “of 90”, “The IC50” for “The pe50”

RON, sequence (Q04912 25-1400, species assumed): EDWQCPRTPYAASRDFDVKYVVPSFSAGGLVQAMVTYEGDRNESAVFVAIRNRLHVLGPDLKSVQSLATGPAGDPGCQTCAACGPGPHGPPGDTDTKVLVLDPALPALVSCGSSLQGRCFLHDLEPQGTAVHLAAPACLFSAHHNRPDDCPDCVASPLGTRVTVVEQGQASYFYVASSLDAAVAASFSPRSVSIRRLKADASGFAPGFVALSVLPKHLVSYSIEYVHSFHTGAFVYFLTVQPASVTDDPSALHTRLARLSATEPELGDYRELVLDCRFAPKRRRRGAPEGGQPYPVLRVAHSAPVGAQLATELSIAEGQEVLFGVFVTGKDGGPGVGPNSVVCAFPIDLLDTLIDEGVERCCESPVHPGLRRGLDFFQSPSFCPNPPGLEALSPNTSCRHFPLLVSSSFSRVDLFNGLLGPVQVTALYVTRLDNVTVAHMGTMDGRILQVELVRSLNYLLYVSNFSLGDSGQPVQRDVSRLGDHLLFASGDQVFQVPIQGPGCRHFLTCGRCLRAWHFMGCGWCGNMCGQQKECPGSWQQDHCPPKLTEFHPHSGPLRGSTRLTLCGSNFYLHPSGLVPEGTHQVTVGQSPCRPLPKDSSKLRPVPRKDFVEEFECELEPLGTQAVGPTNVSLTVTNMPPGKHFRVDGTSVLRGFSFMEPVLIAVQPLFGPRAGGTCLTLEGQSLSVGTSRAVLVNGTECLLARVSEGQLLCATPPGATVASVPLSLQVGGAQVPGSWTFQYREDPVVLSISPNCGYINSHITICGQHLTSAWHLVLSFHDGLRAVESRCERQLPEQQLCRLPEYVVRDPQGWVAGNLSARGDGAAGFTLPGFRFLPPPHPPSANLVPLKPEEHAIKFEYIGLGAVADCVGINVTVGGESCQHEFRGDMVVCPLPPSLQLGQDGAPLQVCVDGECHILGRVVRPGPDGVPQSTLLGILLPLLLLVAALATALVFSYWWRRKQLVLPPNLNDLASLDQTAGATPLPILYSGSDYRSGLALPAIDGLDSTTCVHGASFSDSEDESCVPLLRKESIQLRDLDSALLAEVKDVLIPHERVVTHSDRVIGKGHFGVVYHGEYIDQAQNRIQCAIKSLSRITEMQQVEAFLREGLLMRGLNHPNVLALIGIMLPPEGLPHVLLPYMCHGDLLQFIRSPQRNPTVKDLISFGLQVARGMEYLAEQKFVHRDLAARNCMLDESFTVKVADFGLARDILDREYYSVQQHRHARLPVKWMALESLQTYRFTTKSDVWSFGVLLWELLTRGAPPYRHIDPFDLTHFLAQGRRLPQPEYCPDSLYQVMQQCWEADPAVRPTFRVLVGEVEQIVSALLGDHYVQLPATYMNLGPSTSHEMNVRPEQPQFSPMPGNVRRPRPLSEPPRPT
cMET, sequence (P08581 25-1390): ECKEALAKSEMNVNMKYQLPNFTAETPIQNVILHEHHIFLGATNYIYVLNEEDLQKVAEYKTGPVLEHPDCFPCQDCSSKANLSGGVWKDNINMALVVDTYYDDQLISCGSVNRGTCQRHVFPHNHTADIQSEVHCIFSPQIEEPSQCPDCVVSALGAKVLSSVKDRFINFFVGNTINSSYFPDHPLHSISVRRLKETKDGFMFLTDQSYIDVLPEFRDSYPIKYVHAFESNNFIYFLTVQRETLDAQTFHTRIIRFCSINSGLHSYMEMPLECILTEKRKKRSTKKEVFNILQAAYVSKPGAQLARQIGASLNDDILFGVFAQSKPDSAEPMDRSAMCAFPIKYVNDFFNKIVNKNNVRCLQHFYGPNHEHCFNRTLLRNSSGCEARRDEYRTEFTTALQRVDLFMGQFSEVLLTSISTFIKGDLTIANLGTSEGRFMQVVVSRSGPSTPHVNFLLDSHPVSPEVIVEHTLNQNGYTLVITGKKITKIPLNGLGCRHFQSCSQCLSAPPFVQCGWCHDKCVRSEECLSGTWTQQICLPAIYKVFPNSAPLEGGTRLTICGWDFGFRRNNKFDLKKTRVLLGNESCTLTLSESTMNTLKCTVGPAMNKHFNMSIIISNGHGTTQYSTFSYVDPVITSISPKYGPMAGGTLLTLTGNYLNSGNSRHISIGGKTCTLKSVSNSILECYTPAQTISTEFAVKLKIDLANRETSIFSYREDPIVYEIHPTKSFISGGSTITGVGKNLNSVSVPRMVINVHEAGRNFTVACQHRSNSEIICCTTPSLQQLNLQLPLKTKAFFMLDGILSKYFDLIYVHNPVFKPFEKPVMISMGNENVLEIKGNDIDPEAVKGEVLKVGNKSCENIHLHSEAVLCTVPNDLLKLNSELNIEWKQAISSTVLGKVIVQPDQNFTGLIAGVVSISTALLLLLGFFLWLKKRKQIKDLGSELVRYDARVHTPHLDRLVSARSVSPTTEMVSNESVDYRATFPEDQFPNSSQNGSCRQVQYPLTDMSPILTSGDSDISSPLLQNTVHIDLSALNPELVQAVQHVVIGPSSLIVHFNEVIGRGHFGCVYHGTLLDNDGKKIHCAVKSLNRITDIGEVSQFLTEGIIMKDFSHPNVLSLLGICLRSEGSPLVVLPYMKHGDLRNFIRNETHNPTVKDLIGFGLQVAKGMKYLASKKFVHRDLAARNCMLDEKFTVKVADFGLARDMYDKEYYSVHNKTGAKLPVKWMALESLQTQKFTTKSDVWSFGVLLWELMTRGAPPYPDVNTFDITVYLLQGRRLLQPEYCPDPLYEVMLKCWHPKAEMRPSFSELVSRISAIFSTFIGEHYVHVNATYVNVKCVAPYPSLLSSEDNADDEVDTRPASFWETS

| IC50 (cMET) | IC50 (RON) | SMILES |
| --- | --- | --- |
| > 5 µM | > 5 µM | Nc1ncnc(Oc2ccc(NC(=O)c3nc(-c4ccccc4)cs3)cc2F)c1Cl [Example 41, N-[4-(6-amino-5-chloro-pyrimidin-4-yl)oxy-3-fluoro-phenyl]-4-phenyl-thiazole-2-carboxamide] |
| > 5 µM | 0.5 to 5 µM | Cn1cc(-n2ncc(C(=O)Nc3ccc(Oc4ncnc(N)c4Cl)c(F)c3)c2C(F)(F)F)cn1 [Example 42, N-[4-(6-amino-5-chloro-pyrimidin-4-yl)oxy-3-fluoro-phenyl]-1-(1-methylpyrazol-4-yl)-5-(trifluoromethyl)pyrazole-4-carboxamide] |
| > 5 µM | < 0.05 µM | Nc1ncnc(Oc2ccc(NC(=O)c3cnn(-c4ccccn4)c3C(F)(F)F)cc2F)c1Cl [Example 43, N-(4-((6-amino-5-chloropyrimidin-4-yl)oxy)-3-fluorophenyl)-1-(pyridin-2-yl)-5-(trifluoromethyl)-1H-pyrazole-4-carboxamide] |
| > 5 µM | 0.05 to 0.5 µM | Nc1ncnc(Oc2ccc(NC(=O)c3cnn(-c4cncnc4)c3C(F)(F)F)cc2F)c1Cl [Example 44, N-[4-(6-amino-5-chloro-pyrimidin-4-yl)oxy-3-fluoro-phenyl]-1-pyrimidin-5-yl-5-(trifluoromethyl)pyrazole-4-carboxamide] |
| 0.5 to 5 µM | < 0.05 µM | Nc1ncnc(Oc2ccc(NC(=O)c3cnn(-c4ncccc4F)c3C(F)(F)F)cc2F)c1Cl [Example 45, N-[4-(6-amino-5-chloro-pyrimidin-4-yl)oxy-3-fluoro-phenyl]-1-(3-fluoro-2-pyridyl)-5-(trifluoromethyl)pyrazole-4-carboxamide] |
| > 5 µM | 0.05 to 0.5 µM | Cc1cccnc1-n1ncc(C(=O)Nc2ccc(Oc3ncnc(N)c3Cl)c(F)c2)c1C(F)(F)F [Example 46, N-[4-(6-amino-5-chloro-pyrimidin-4-yl)oxy-3-fluoro-phenyl]-1-(3-methyl-2-pyridyl)-5-(trifluoromethyl)pyrazole-4-carboxamide] |
| > 5 µM | 0.05 to 0.5 µM | Cc1ccnc(-n2ncc(C(=O)Nc3ccc(Oc4ncnc(N)c4Cl)c(F)c3)c2C(F)(F)F)c1 [Example 47, N-[4-(6-amino-5-chloro-pyrimidin-4-yl)oxy-3-fluoro-phenyl]-1-(4-methyl-2-pyridyl)-5-(trifluoromethyl)pyrazole-4-carboxamide] |
| > 5 µM | 0.5 to 5 µM | Cc1ccc(-n2ncc(C(=O)Nc3ccc(Oc4ncnc(N)c4Cl)c(F)c3)c2C(F)(F)F)nc1 [Example 48, N-[4-(6-amino-5-chloro-pyrimidin-4-yl)oxy-3-fluoro-phenyl]-1-(5-methyl-2-pyridyl)-5-(trifluoromethyl)pyrazole-4-carboxamide] |
| > 5 µM | 0.5 to 5 µM | Cc1cccc(-n2ncc(C(=O)Nc3ccc(Oc4ncnc(N)c4Cl)c(F)c3)c2C(F)(F)F)n1 [Example 49, N-[4-(6-amino-5-chloro-pyrimidin-4-yl)oxy-3-fluoro-phenyl]-1-(6-methyl-2-pyridyl)-5-(trifluoromethyl)pyrazole-4-carboxamide] |
| > 5 µM | 0.05 to 0.5 µM | Nc1ncnc(Oc2ccc(NC(=O)c3cnn(-c4ccc(F)cn4)c3C(F)(F)F)cc2F)c1Cl [Example 50, N-[4-(6-amino-5-chloro-pyrimidin-4-yl)oxy-3-fluoro-phenyl]-1-(5-fluoro-2-pyridyl)-5-(trifluoromethyl)pyrazole-4-carboxamide] |
| 0.5 to 5 µM | < 0.05 µM | Nc1ncnc(Oc2ccc(NC(=O)c3cnn(-c4ncccc4Cl)c3C(F)(F)F)cc2F)c1Cl [Example 51, N-[4-(6-amino-5-chloro-pyrimidin-4-yl)oxy-3-fluoro-phenyl]-1-(3-chloro-2-pyridyl)-5-(trifluoromethyl)pyrazole-4-carboxamide] |
| > 5 µM | 0.5 to 5 µM | Nc1ncnc(Oc2ccc(NC(=O)c3cnn(-c4cc(Cl)ccn4)c3C(F)(F)F)cc2F)c1Cl [Example 52, N-[4-(6-amino-5-chloro-pyrimidin-4-yl)oxy-3-fluoro-phenyl]-1-(4-chloro-2-pyridyl)-5-(trifluoromethyl)pyrazole-4-carboxamide] |
| 0.5 to 5 µM | 0.05 to 0.5 µM | Nc1ncnc(Oc2ccc(NC(=O)c3cnn(-c4ncccc4C(F)(F)F)c3C(F)(F)F)cc2F)c1Cl [Example 53, N-[4-(6-amino-5-chloro-pyrimidin-4-yl)oxy-3-fluoro-phenyl]-5-(trifluoromethyl)-1-[3-(trifluoromethyl)-2-pyridyl]pyrazole-4-carboxamide] |
| > 5 µM | 0.05 to 0.5 µM | COc1cccnc1-n1ncc(C(=O)Nc2ccc(Oc3ncnc(N)c3Cl)c(F)c2)c1C(F)(F)F [Example 54, N-[4-(6-amino-5-chloro-pyrimidin-4-yl)oxy-3-fluoro-phenyl]-1-(3-methoxy-2-pyridyl)-5-(trifluoromethyl)pyrazole-4-carboxamide] |
| > 5 µM | 0.5 to 5 µM | CCc1ccnc(-n2ncc(C(=O)Nc3ccc(Oc4ncnc(N)c4Cl)c(F)c3)c2C(F)(F)F)c1 [Example 55, N-[4-(6-amino-5-chloro-pyrimidin-4-yl)oxy-3-fluoro-phenyl]-1-(4-ethyl-2-pyridyl)-5-(trifluoromethyl)pyrazole-4-carboxamide] |
| > 5 µM | 0.05 to 0.5 µM | Nc1ncnc(Oc2ccc(NC(=O)c3cnn(-c4cccnc4)c3C(F)(F)F)cc2F)c1Cl [Example 56, N-[4-(6-amino-5-chloro-pyrimidin-4-yl)oxy-3-fluoro-phenyl]-1-(3-pyridyl)-5-(trifluoromethyl)pyrazole-4-carboxamide] |
| > 5 µM | 0.5 to 5 µM | Nc1ncnc(Oc2ccc(NC(=O)c3cnn(-c4ccncc4)c3C(F)(F)F)cc2F)c1Cl [Example 57, N-[4-(6-amino-5-chloro-pyrimidin-4-yl)oxy-3-fluoro-phenyl]-1-(4-pyridyl)-5-(trifluoromethyl)pyrazole-4-carboxamide] |
| > 5 µM | 0.05 to 0.5 µM | CCc1cccnc1-n1ncc(C(=O)Nc2ccc(Oc3ncnc(N)c3Cl)c(F)c2)c1C(F)(F)F [Example 58, N-[4-(6-amino-5-chloro-pyrimidin-4-yl)oxy-3-fluoro-phenyl]-1-(3-ethyl-2-pyridyl)-5-(trifluoromethyl)pyrazole-4-carboxamide] |
| > 5 µM | < 0.05 µM | Nc1ncnc(Oc2ccc(NC(=O)c3cnn(-c4ncccn4)c3C(F)(F)F)cc2F)c1Cl [Example 59, N-[4-(6-amino-5-chloro-pyrimidin-4-yl)oxy-3-fluoro-phenyl]-1-pyrimidin-2-yl-5-(trifluoromethyl)pyrazole-4-carboxamide] |
| > 5 µM | 0.05 to 0.5 µM | Nc1ncnc(Oc2ccc(NC(=O)c3cnn(-c4cccnn4)c3C(F)(F)F)cc2F)c1Cl [Example 60, N-[4-(6-amino-5-chloro-pyrimidin-4-yl)oxy-3-fluoro-phenyl]-1-pyridazin-3-yl-5-(trifluoromethyl)pyrazole-4-carboxamide] |
